# Laboratory results: patent US7981444B2, “Dendritic polymers with enhanced amplification and interior functionality” (Dendritic Nanotechnologies, Inc., priority 2004, dated 2011)
# Legend:
# [1] = cited from earlier work
# [2] = Thermal Gravimetric Analysis (TGA); format: physicochemical; conditions: in nitrogen, scan 20 to 520° C., ramp rate 10 degrees per minute
# Protocol: Thermal Gravimetric Analysis (TGA)
# Thermal gravimetric data were obtained on a Universal V3.9A TA Instrument. Temperature scan range was from 20 to 520° C. with a ramp rate of 10 degrees per minute. Sample sizes were typically about 10 mg of solid product.
# In comparison, curves 1 and 2 show the thermal degradation profiles of products of Examples 7D and 13, respectively.
# TGA Under Same Conditions as Comparative Example I for Various Dendrimers of Formula (I) and PAMAM
Onset Temp. (° C.) [2] [°C],Temp. (° C.) at 50% wt loss [2] [°C],Temp. (° C.) at Residue [2],Molecule,pKa value [1]
–,–,–,tris(hydroxymethyl)amino methane,8.10
320,407,500+ ° C.,COC(=O)C1CC(=O)N(CCN(CCN2CC(C(=O)OC)CC2=O)CC(O)Cn2c(=O)n(CC(O)CN(CCN3CC(C(=O)OC)CC3=O)CCN3CC(C(=O)OC)CC3=O)c(=O)n(CC(O)CN(CCN3CC(C(=O)OC)CC3=O)CCN3CC(C(=O)OC)CC3=O)c2=O)C1 (stereo not shown) [Example 33],–
